Measurements from patent US9333152B2, “Peptides which inhibit activated receptors and their use in cosmetic or pharmaceutical compositions” (LIPOTEC, S.A., priority 2011, dated 2016).
Several values for one entry are separate records, joined by “and”; a condition that tells them apart may be missing. Equal values may be shown once.

Legend:
[1] = system: sensitization of TRPV1 mediated by PAR-2 activity; assay: Inhibition of sensitization of TRPV1 mediated by PAR-2 activity in sensory neurons in culture; CGRP levels (EIA); assay type: cell-based; conditions: rat DRG neurons, 15 min, PAR-2 agonist I 30 μM then capsaicin 1 μM
Protocol: Thus, the effectiveness and potential of the peptides in the inhibition of α-CGRP release due to TRPV-1 sensitization mediated by PAR-2 activity in culture of rat DRG neurons was evaluated.
DRG neurons in culture were incubated with the different treatments at the indicated concentrations in buffer medium HBSS (Hank's Balanced salt solution) for 15 min at 37° C., after which the neurons were sensitized by treatment with the PAR-2 agonist I at 30 μM for 15 min at 37° C. Lastly α-CGRP release was induced by treatment with capsaicin 1 μM for 5 min at 37° C. The supernatants were collected and the amount of α-CGRP released was determined by enzyme immunoassay using the Rat CGRP EIA kit (SPI-Bio, Societe de Pharmacologie et d'Immunologie-BIO, France) following the supplier's instructions. The intensity of the color, determined by reading the absorbency at 405 nm, is proportional to the amount of CGRP released. The relative values of CGRP released were determined by double standardization with regard to the basal release of CGRP of the negative control (cells treated with HBSS) and the maximum releases of CGRP induced by the treatment with the cells with the PAR-2 agonist I and capsaicin.

PAR-2 = target: T1, PAR-2 (Homo sapiens, UniProt P55085); assay: Inhibition of the release of IL-6 induced by PAR-2 activity in human keratinocytes (ELISA); assay type: cell-based; conditions: 48 h, relative to agonist
T1 construct: endogenous in cells; host or cells: human keratinocytes
T1 sequence (P55085 26-397): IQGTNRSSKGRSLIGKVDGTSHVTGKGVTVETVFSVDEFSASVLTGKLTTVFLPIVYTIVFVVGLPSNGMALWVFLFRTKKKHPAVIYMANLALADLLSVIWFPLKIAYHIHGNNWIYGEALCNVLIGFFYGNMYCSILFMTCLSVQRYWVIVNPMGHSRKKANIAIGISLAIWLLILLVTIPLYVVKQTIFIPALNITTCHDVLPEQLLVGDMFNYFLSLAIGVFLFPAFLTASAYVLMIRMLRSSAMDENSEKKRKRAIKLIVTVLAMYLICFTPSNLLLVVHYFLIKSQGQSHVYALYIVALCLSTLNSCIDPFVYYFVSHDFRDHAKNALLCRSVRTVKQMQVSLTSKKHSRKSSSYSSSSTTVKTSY
Protocol: Human keratinocytes were cultivated in supplemented Epilife® medium until confluence was achieved. The cells were then separated by treatment with trypsin and seeded at a density of 18,000 cells per well in 96-well plates pre-treated with collagen matrix. After 48 hours of incubation in supplemented Epilife® medium at 37° C. in a humidified atmosphere of 5% CO2 a fresh medium was added with different concentrations of the product of the invention together with PAR2 Agonist I at 50 μM. Cells treated with supplemented Epilife® medium were added as a negative control (Control). The cells were incubated for another 48 hours under the same conditions, after which the supernatants were collected and the amount of IL-6 released was determined using the Human IL-6 ELISA Ready-SET-GOI® commercial kit (eBioscience, Inc.) following the supplier's instructions. The absorbance of each well was determined by reading the spectrophotometer Multiskan Ascent Reader at 450 nm correcting for each determination with its corresponding reading at 570 nm. The relative levels of IL-6 were calculated standardized with regard to the absorbance corresponding to the treatment of the cells with the PAR-2 Agonist I (maximum release of IL-6 in this cell model).

[2] = system: human epidermal keratinocytes; assay: Proliferation of human epidermal keratinocytes in culture (calcein-AM); assay type: cell-based; conditions: 24 h, (T-C)/C
Protocol: Cell proliferation was evaluated by a fluorescence-based cell viability method, in which the live cells are distinguished from the dead cells by the enzymatic conversion of calcein-AM to its fluorescent form.
Human keratinocytes were cultivated in DMEM supplemented with fetal bovine serum (FBS) until confluence was achieved. The cells were then separated using trypsin and were seeded at a density of 100,000 cells per well in 96-well plates. After 24 hours of incubation in DMEM at 37° C. in a humidified atmosphere at 5% CO2 a fresh medium was added with different concentrations of the product of the invention. Cells treated with DMEM as a negative control were used. The cells were incubated for another 24 hours under the same conditions and the medium was substituted by 100 μl of calcein-AM (Molecular Probes) at 0.4 μM diluted in phosphate buffered saline (PBS). After 30 minutes of incubation at 37° C. the fluorescence was measured at excitation 485 nm and emission 530 nm in a plate reader (Genios, Tecan). The total growth percentage was calculated as T/C×100 wherein T is the fluorescence of the wells treated with the peptides of the invention and C the fluorescence of the control wells treated with DMEM.

[3] = system: human epidermal keratinocytes; assay: Induction of healing in human epidermal keratinocytes in culture (cell-free area closure); assay type: cell-based; conditions: 48 h, (A0-A48)/A0
Protocol: Human keratinocytes were cultivated in DMEM supplemented with fetal bovine serum (FBS) until confluence was achieved. The cells were then separated using trypsin and were seeded at a density of 50,000 cells per well in 48-well plates. After 48 hours of incubation in DMEM at 37° C. in a humidified atmosphere at 5% CO2 a cut in the cultivation with a pipette point to create an area without cells simulating an injury and photographs were taken of said area with a Zeiss Axiovert 40 CFL microscope equipped with a AxioCam MRc5 camera, calculating the area of the zone without cells using the (A0) equipment software. A fresh medium was then added with different concentrations of the product of the invention. Cells treated with DMEM as a negative control were used, and cells treated with DMEM and FBS as the positive healing control. The cells were incubated for another 48 hours under the same conditions to enable cell migration in the injury area, after which photographs were taken of the injury area once again and the corresponding areas of the zones without cells were calculated (A48).
The healing percentage was calculated as the ratio of the reduction to the area without cells after 48 hours and the area without cells before incubation with the peptide [(A0-A48)/A0].

human dermal fibroblasts = assay: Photoprotective effectiveness in human dermal fibroblasts (solar simulation lamp, Neutral Red); assay type: cell-based; conditions: 0.01 μg/mL
Protocol: The human dermal fibroblasts were maintained in culture for 24 hours in […] or phosphate buffered saline (irradiated control, IC) for 1 hour at 37° C. and humidified air with 5% CO2. The cells were then irradiated with a solar simulation lamp with an energy of 37 J/cm^2 at room temperature for 150 min. A control plate was kept in the dark for the same time at room temperature (non-irradiated control, NIC). After the irradiation period the cell medium was replaced by a fresh one and the cells were incubated for another 24 hours. Cell viability was determined by Neutral Red dye, measuring the optical density at 540 nm in a spectrophotometer, standardizing the values of each simple with regard to the cell viability of the non-irradiated control sample (CVNIC).

[4] = In vivo study of skin hydration (Corneometer CM 825, legs); design: species or system human; conditions: versus placebo composition
Protocol: A comparative in vivo study of the hydrating capacity of the skin of the cosmetic composition in example 22 and its placebo composition, which contained the same ingredients and in the same percentages as the composition of example 22, except the peptide of the invention, Ac-L-Phe-L-Phe-L-Trp-L-Phe-L-His-L-Val-NH2, which was substituted by water.
The measurements of this study were carried out after the test persons were acclimatized for 45 minutes in a bioclimatic room (22° C.; 60% relative humidity) and with the purpose of maintaining the temperature and humidity constant during the measuring. The measurements of skin hydration were carried out on the legs using a Corneometer® CM 825 (Courage & Khazaka, Germany). […]
All the volunteers applied the placebo composition on their right leg and the cosmetic composition from Example 22 on their left legs twice a day for 4 weeks, always applying the placebo composition to the right leg and the composition from example 22 to the left leg. […] Skin measurement values were measured at three different places within the respective testing areas. The recorded values were averaged. […]

[5] = system: Reconstructed human epidermis (RHE); assay: Anti-sensitizing potential: IL-8 expression in reconstructed human epidermis (RHE), ELISA; assay type: cell-based; conditions: versus placebo composition; allergens cinnamal and farnesol
Excerpt: Cosmetic creams containing parfums normally show allergic reactions due to some allergenic components like cinnamal or farnesol. The purpose of this experiment was to evaluate the anti-sensitizing potential of a cosmetic cream of Example 23 containing cinnamal, farnesol and the peptide Ac-L-Phe-L-Phe-L-Trp-L-Phe-L-His-L-Val-NH2, compared with a placebo cream (composition of Example 23 without the ingredients of phase C). In order to determine the anti-sensitizing potential the level of interleukin-8, IL-8 was measured for both creams in RHE tissues after 24 h of cream application.
Commercial RHE tissues (SkinEthic, Lyon, RHE/S/17) (0.5 cm^2) were treated in triplicate with 15 μg of the composition of Example 23 and the placebo composition over the surface of the tissue. After 24 hours of incubation in growth medium at 37° C. in a humidified atmosphere at 5% CO2, the IL-8 expression in the treated RHE tissues was determined using the ELISA Interleukin detection kit (Invitrogen) following the supplier's instructions. The absorbance was determined by reading the spectrophotometer Synergy MX, Biotek, at 450 nm.

[6] = peptide 0.1 mg/mL with PAR2 Agonist I 50 μM
[7] = peptide 0.5 mg/mL with PAR2 Agonist I 50 μM

Substance	% CGRP ([1]; peptide 25 μg/mL) [%]	% CGRP ([1]; peptide 0.5 mg/mL) [%]	% IL-6 (PAR-2; [6]) [%]	% IL-6 (PAR-2; [7]) [%]	% Stimulation of proliferation ([2]; 10 μg/mL) [%]	% Stimulation of proliferation ([2]; 25 μg/mL)	% Healing ([3]; 25 μg/mL) [%]	% Healing ([3]; 0.5 mg/mL)	% PHOTOPROTECTIVE EFFECTIVENESS (human dermal fibroblasts; (CVi-CVIC)/CVIC versus irradiated control) [%]	CELL VIABILITY (%) (human dermal fibroblasts; irradiated 37 J/cm^2, 150 min, relative to non-irradiated control)	skin hydration (in words) [4]	IL-8 expression / release of cytokines (in words) [5]
Ac-FFWDIV-NH2 [Ac-L-Phe-L-Phe-L-Trp-L-Asp-L-Ile-L-Val-NH2]	78.7	20.3	36.2	11.5								
Ac-FFWFHV-NH2 [Ac-L-Phe-L-Phe-L-Trp-L-Phe-L-His-L-Val-NH2]	58.9	17.7	61.8	30.4	21.3	23% and 23.2%	40.0	45% and 44.8%	105.9	37.1	improves the skin's hydration in vivo	highly counteract the release of cytokines induced by cosmetic allergens
Ac-FMWFHV-NH2 [Ac-L-Phe-L-Met-L-Trp-L-Phe-L-His-L-Val-NH2]	70.1	20.2	84.6	42.3								
